Strand notation (5' to 3'): a small letter for the sugar, then the base; units joined by * are phosphorothioate-linked, units joined directly phosphodiester-linked; [ ] holds rarer units or linkages, { } end groups; capitals alone tell only the bases. k = constrained ethyl (cEt); [5mC] = 5-methylcytosine; d = 2'-deoxy (DNA)
The substances below were run on human SMAD7 mRNA (assay: Antisense inhibition of human SMAD7 mRNA expression in Hep3B cells by 3-10-3 cEt gapmers, 10,000 nM, electroporation (Example 2)). Details: Hep3B cells, 10,000 nM antisense oligonucleotide, electroporation, approximately 24 hours, RT-PCR primer probe set RTS5062, relative to untreated control cells.
Type: cell-based
In short: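 Hep3B cells (20,000/well) were electroporated with 10,000 nM 3-10-3 cEt gapmer (16-mer, phosphorothioate, 5-methylcytosines) and harvested after about 24 h. SMAD7 mRNA quantified by RT-qPCR with primer probe set RTS5062, normalized to total RNA by RiboGreen; percent inhibition relative to untreated cells.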

First: 799972 (k[5mC]*kA*k[5mC]*dA*dA*dG*dG*dA*d[5mC]*d[5mC]*d[5mC]*dT*dT*kG*k[5mC]*kT; antisense) [compound 799972]
Second: 800018 (kA*kA*kA*dA*d[5mC]*dT*d[5mC]*dA*d[5mC]*dA*dG*dT*d[5mC]*k[5mC]*kT*kT; antisense) [compound 800018]
The “% Inhibition” value of the first is lower: 0% for the first, 51% for the second.

“800096 (antisense kT*kG*kG*dA*dG*dT*dT*dA*d[5mC]*dA*dG*dA*dT*k[5mC]*kT*kT) [compound 800096]” was tested, and the “% Inhibition” value was 32%.

Same assay, conditions: Hep3B cells, electroporation with 10,000 nM antisense oligonucleotide, approximately 24 hours, RTS5062, percent inhibition of SMAD7 mRNA relative to untreated control cells

Compared with “799824 (antisense kG*kA*kA*dA*dT*dG*dG*d[5mC]*dT*d[5mC]*d[5mC]*dT*dG*k[5mC]*kA*kA) [compound 799824]”, “799315 (antisense k[5mC]*kA*k[5mC]*d[5mC]*dA*dA*dG*dA*dT*d[5mC]*d[5mC]*dA*dT*k[5mC]*kT*kT) [compound 799315]” is higher in “% Inhibition” value: 9% for the first, 15% for the second.

“799528 (k[5mC]*kG*kG*dA*dT*dA*d[5mC]*d[5mC]*dA*dG*dG*dT*dG*kG*kT*kT; antisense) [compound 799528]” was tested, and the “% Inhibition” value was 17%.

Same assay, conditions: Hep3B cells, electroporation with 10,000 nM antisense oligonucleotide, approximately 24 hours, SMAD7 mRNA by RT-PCR (RTS5062), relative to untreated control cells

First: 798833 (kT*kA*kG*dA*dT*d[5mC]*dA*dT*dA*dG*dA*dA*dG*kA*kT*kA; antisense) [compound 798833]
Second: 830196 (antisense kT*kT*kA*dA*dT*dG*dG*d[5mC]*d[5mC]*d[5mC]*dA*dG*d[5mC]*k[5mC]*k[5mC]*kA) [compound 830196]
The “% Inhibition” value of the first is higher: 48% for the first, 31% for the second.

First: 798850 (k[5mC]*kA*kG*d[5mC]*dT*dG*dG*dA*dT*dG*d[5mC]*d[5mC]*dG*k[5mC]*kA*kG; antisense) [compound 798850]
Second: 800063 (antisense kG*k[5mC]*k[5mC]*dA*dT*dA*d[5mC]*dA*dA*dA*dT*dG*dT*kG*k[5mC]*kA) [compound 800063]
The “% Inhibition” value of the first is higher: 12% for the first, 0% for the second.

First: 800020 (kA*kA*k[5mC]*d[5mC]*dT*d[5mC]*dT*dG*dA*dA*dG*dG*d[5mC]*kA*kA*kA; antisense) [compound 800020]
Second: 799450 (antisense kA*kA*kG*dA*dA*d[5mC]*dA*d[5mC]*dA*dG*d[5mC]*dA*d[5mC]*kT*kG*k[5mC]) [compound 799450]
The “% Inhibition” value of the first is lower: 21% for the first, 53% for the second.

Going from “800083 (antisense kT*kG*k[5mC]*dA*dG*dA*d[5mC]*d[5mC]*dG*dG*dT*dA*dT*kT*kA*kA) [compound 800083]” to “799355 (kA*kG*kG*dA*dA*dA*d[5mC]*d[5mC]*dT*dA*dG*dA*dA*k[5mC]*k[5mC]*kA; antisense) [compound 799355]”, the “% Inhibition” value rises from 11% to 23%.

First: 798682 (antisense kG*k[5mC]*kT*dA*dA*dG*dG*dA*dG*d[5mC]*dG*dA*dA*k[5mC]*kA*kT) [compound 798682]
Second: 800045 (kG*kA*kG*dG*dA*dG*d[5mC]*dA*dA*dG*dG*dG*dA*kG*kT*kG; antisense) [compound 800045]
The “% Inhibition” value of the first is higher: 60% for the first, 59% for the second.

Compared with “800059 (antisense kA*kA*kA*dA*d[5mC]*dA*dA*dG*dA*d[5mC]*dA*dG*dG*kG*kA*k[5mC]) [compound 800059]”, “798919 (kT*kG*k[5mC]*dT*d[5mC]*dA*dG*d[5mC]*dT*d[5mC]*dA*d[5mC]*dG*k[5mC]*kT*k[5mC]; antisense) [compound 798919]” is higher in “% Inhibition” value: 31% for the first, 45% for the second.

Same assay, conditions: Hep3B cells, electroporation with 10,000 nM antisense oligonucleotide, approximately 24 hours, primer probe set RTS5062, relative to untreated control cells

Going from “798663 (kT*kG*k[5mC]*dG*d[5mC]*dT*d[5mC]*d[5mC]*dG*dG*d[5mC]*dT*dG*k[5mC]*k[5mC]*k[5mC]; antisense) [compound 798663]” to “799457 (antisense k[5mC]*kA*k[5mC]*dG*dA*dT*dA*dG*dT*d[5mC]*dT*d[5mC]*dA*kG*k[5mC]*kA) [compound 799457]”, the “% inhibition of SMAD7 mRNA expression” value rises from 41% to 62%.

Compared with “790613 (k[5mC]*kA*kT*dT*dT*dA*dA*dA*d[5mC]*d[5mC]*dT*dT*dT*kG*kT*kA; antisense) [compound 790613]”, “799107 (antisense k[5mC]*kT*kG*dG*dT*dT*dT*dT*d[5mC]*dT*dA*dA*dG*kT*k[5mC]*k[5mC]) [compound 799107]” is higher in “% inhibition of SMAD7 mRNA expression” value: 0% for the first, 51% for the second.

First: 799422 (antisense kG*kA*kT*dT*dT*dT*dA*dA*d[5mC]*dA*dG*dT*dT*kG*kT*k[5mC]) [compound 799422]
Second: 799481 (antisense k[5mC]*kT*k[5mC]*d[5mC]*dA*d[5mC]*dA*d[5mC]*dA*dG*dG*d[5mC]*dA*kA*k[5mC]*k[5mC]) [compound 799481]
The “% inhibition of SMAD7 mRNA expression” value of the first is lower: 33% for the first, 34% for the second.

In the case of “798743 (antisense kT*kG*k[5mC]*d[5mC]*dG*d[5mC]*dT*d[5mC]*d[5mC]*dT*dT*d[5mC]*dA*kG*kT*kT) [compound 798743]”, the “% inhibition of SMAD7 mRNA expression” value was 19%.

Compared with “798982 (antisense k[5mC]*kT*kT*d[5mC]*dA*dT*dA*d[5mC]*dA*d[5mC]*dT*dG*dT*kG*kT*kT) [compound 798982]”, “799013 (kT*k[5mC]*k[5mC]*dA*dT*dA*dA*dG*dA*dG*dA*d[5mC]*dA*k[5mC]*kA*kA; antisense) [compound 799013]” is lower in “% Inhibition” value: 45% for the first, 37% for the second.

With “799179 (antisense kA*kA*kT*dA*dG*d[5mC]*dT*dT*dA*dT*dG*dT*dT*kA*kA*kA) [compound 799179]” the “% Inhibition” value was 0%.

Same assay, conditions: Hep3B cells, electroporation, 10,000 nM antisense oligonucleotide, approximately 24 hours, RTS5062, relative to untreated control cells

First: 799600 (kG*k[5mC]*kA*d[5mC]*d[5mC]*dA*dA*d[5mC]*dT*d[5mC]*dT*dG*dA*kA*k[5mC]*kG; antisense) [compound 799600]
Second: 799619 (kA*k[5mC]*kG*dA*d[5mC]*d[5mC]*dA*dG*dG*d[5mC]*d[5mC]*dT*dG*kT*k[5mC]*kG; antisense) [compound 799619]
The “% inhibition of SMAD7 mRNA expression” value of the first is higher: 63% for the first, 9% for the second.

In the case of “799558 (k[5mC]*kT*kT*d[5mC]*dT*dA*dT*dT*d[5mC]*dG*dA*dG*d[5mC]*kT*kG*k[5mC]; antisense) [compound 799558]”, the “% inhibition of SMAD7 mRNA expression” value was 47%.

Same assay, conditions: Hep3B cells, electroporation, 10,000 nM, approximately 24 hours; 3-10-3 cEt gapmers targeting SEQ ID NO: 3 and 4

For “829943 (kG*kG*kG*dA*dG*dA*d[5mC]*dT*d[5mC]*d[5mC]*dA*dG*dT*kT*k[5mC]*kG; antisense) [compound 829943]”, the “% inhibition of SMAD7 mRNA expression” value was 43%.

Same assay, conditions: SMAD7 mRNA, Hep3B cells, 10,000 nM antisense oligonucleotide, electroporation, approximately 24 hours, primer probe set RTS5062, relative to untreated control cells

Going from “790537 (kA*kG*k[5mC]*dA*dG*d[5mC]*dA*dA*dA*dG*dT*dA*dG*kT*kT*kT; antisense) [compound 790537]” to “772738 (kA*k[5mC]*k[5mC]*dA*dG*dT*dT*dG*dG*dT*dT*dT*dG*kA*kG*kA; antisense) [compound 772738]”, the “% Inhibition” value falls from 27% to 16%.

Going from “790498 (k[5mC]*kT*k[5mC]*dT*dA*dG*dT*dT*d[5mC]*dG*d[5mC]*dA*dG*kA*kG*kT; antisense) [compound 790498]” to “829735 (antisense k[5mC]*k[5mC]*kT*d[5mC]*d[5mC]*dG*d[5mC]*dA*d[5mC]*dA*d[5mC]*d[5mC]*dA*kT*kG*kA) [compound 829735]”, the “% Inhibition” value rises from 11% to 61%.

Same assay, conditions: SMAD7 mRNA, Hep3B cells, electroporation with 10,000 nM antisense oligonucleotide, approximately 24 hours, primer probe set RTS5062, relative to untreated control cells

First: 829915 (antisense kG*kG*kT*dA*d[5mC]*d[5mC]*dT*dT*dG*dG*dG*dT*dT*kA*kT*kG) [compound 829915]
Second: 829935 (k[5mC]*kT*kA*dG*dG*dT*dG*dA*dT*dA*dA*d[5mC]*dA*k[5mC]*k[5mC]*k[5mC]; antisense) [compound 829935]
The “% Inhibition” value of the first is higher: 22% for the first, 0% for the second.

Going from “829954 (kT*kT*kG*dT*d[5mC]*dA*d[5mC]*d[5mC]*d[5mC]*dG*dT*d[5mC]*dT*kG*kG*kG; antisense) [compound 829954]” to “829946 (kG*k[5mC]*kA*dG*d[5mC]*d[5mC]*dA*dG*dT*dT*dA*dA*dT*k[5mC]*kA*kT; antisense) [compound 829946]”, the “% Inhibition” value falls from 53% to 44%.

— patent publication US10517889B2, “Modulators of SMAD7 expression” (Ionis Pharmaceuticals, Inc., priority 2017, dated 2019)
